Reference: patent publication US8901145B2, “Aminopyrimidine kinase inhibitors” (Jasco Pharmaceuticals, LLC, priority 2011, dated 2014)
pIC50: −log10 of the molar value.

Key:
[1] = target: Pim-2(h) (Homo sapiens, UniProt Q9P1W9); assay: Enzyme activity, ATP = Km, Pim-2(h); type: biochemical; details: 300 nM of compound, ATP concentration = Km
[2] = target: Pim-3(h) (Homo sapiens, UniProt Q86V86); assay: Enzyme activity, ATP = Km, Pim-3(h); type: biochemical; details: 300 nM of compound, ATP concentration = Km
[3] = system: CK1(y); assay: Enzyme activity, ATP = Km, CK1(y); type: biochemical, yeast; details: 300 nM of compound, ATP concentration = Km
[4] = system: RPMI-8226; assay: Cell proliferation inhibition (MTS), RPMI-8226; type: cell-based, human; details: RPMI 8226, 72 hours
Experimental: (§1) All cells were cultured in media supplemented with 10% FBS except for which are marked specially, in the temperature of 37° C., 5% CO2 and 95% humidity. All culture media were purchased from GIBCO (USA, IMDM Cat. 12200-036; RPMI Medium 1640 Cat. 31800-022; 2-mercaptoethanol Cat. 21985-023).
(§2) • 1. The cells were harvested respectively during the logarithmic growth period and counted with hemocytometer. The cell viability was over 98% by trypan blue exclusion. • 2. Cell concentrations were adjusted to 2.22×10^5 or 1.11×10^5 or 5.56×10^4 cells/mL with respective medium. • 3. 90 μL cell suspensions were added to 96-well plates (triplicates for each cell concentration), the final cell densities were 2×10^4 or 1×10^4 or 5×10^3 cells/well. The density of 5×10^3 cells/well was used for the first test. The appropriate cell density was determined and adjusted according to the results of the first test. • 4. The next day, test article or positive drugs were dissolved with DMSO as stock solution at the concentration of 20 mM. • 5. 10 μL drug solution was dispensed in each well (triplicate for each drug concentration). • 6. Plates were cultured for another 72 hours, then measured by means of MTS assay. • 7. MTS/PMS solution was prepared immediately prior to use. […] Absorbance at 490 nm was recorded using SpectraMAX Plus microplate spectrophotometer. […]

[5] = system: KU812; assay: Cell proliferation inhibition (MTS), KU812; type: cell-based, human; details: KU812, 72 h
Experimental: (§3) All cells were cultured in the media supplemented with 10% FBS in the temperature of 37° C., 5% CO2 and 95% humidity. All culture media were purchased from GIBCO.
(§4) • 1. Cells were harvested respectively during the logarithmic growth period and counted with hemocytometer. Cell viability was over 98% by trypan blue exclusion. • 2. Dilute cells with respective medium to achieve 1.11×10^5 cells/mL for LNCaP cells, 2.22×10^5 cells/mL for KU812 cells, 5.56×10^4 cells/mL for Panc-1 cells. • 3. Add 90 μL cell suspensions to 96-well plate, the final cell densities are 1×10^4 cells/well for LNCaP cells, 2×10^4 cells/well for KU812 cells, and […] cells/well for Panc-1 cells, respectively. • 4. The next day, dilute the test article or positive drugs with DMSO or PBS. • 5. Dispense 10 μL drug solution in each well (triplicate for each drug concentration). • 6. The plates were cultured for another 72 hours, then measured using MTS assay. • 7. Prepare MTS/PMS solution immediately prior to use, pipet 20 μL of the mixture into each well of the 96 well assay plate containing 100 μL culture medium. (The final reaction volume is 120 μL). • 8. Incubate the plate for 1-4 hours at 37° C. in a humidified, 5% CO2 atmosphere. • 9. Record the absorbance at 490 nm using Synergy2 Microplate Reader. Data Analysis:
(§5) The software of GraphPad Prism version 5 was used to calculate IC50. […]

[6] = system: NCI-H929; assay: Cell proliferation inhibition (MTS), NCI-H929; type: cell-based, human; details: NCI-H929, 72 hours
Experimental: as §1, §2

[7] = target: Pim-1(h) (Homo sapiens, UniProt P11309); assay: Enzyme activity, ATP = Km, Pim-1(h); type: biochemical; details: 300 nM of compound, ATP concentration = Km
[8] = system: Panc-1; assay: Cell proliferation inhibition (MTS), Panc-1; type: cell-based, human; details: Panc-1, 72 h
Experimental: as §3, §4, §5

[9] = target: CK1γ2(h) (Homo sapiens, UniProt P78368); assay: Enzyme activity, ATP = Km, CK1γ2(h); type: biochemical; details: 300 nM of compound, ATP concentration = Km
[10] = target: CK2(h) (Homo sapiens, UniProt P68400); assay: Enzyme activity, ATP = Km, CK2(h); type: biochemical; details: 300 nM of compound, ATP concentration = Km
Chain of CK2(h) (P68400 whole entry): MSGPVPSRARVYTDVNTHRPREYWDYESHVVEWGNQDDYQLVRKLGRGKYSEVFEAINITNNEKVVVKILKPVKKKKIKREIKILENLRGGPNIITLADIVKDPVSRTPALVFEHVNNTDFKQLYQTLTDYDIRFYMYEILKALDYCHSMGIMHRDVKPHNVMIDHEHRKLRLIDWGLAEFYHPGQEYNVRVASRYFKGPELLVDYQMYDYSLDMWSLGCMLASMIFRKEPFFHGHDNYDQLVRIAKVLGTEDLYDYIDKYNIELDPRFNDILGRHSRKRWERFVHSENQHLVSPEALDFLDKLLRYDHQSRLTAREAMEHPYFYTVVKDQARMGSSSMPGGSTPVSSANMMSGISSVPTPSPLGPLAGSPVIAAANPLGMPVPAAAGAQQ
Chain of CK2(h) (P67870 whole entry partner): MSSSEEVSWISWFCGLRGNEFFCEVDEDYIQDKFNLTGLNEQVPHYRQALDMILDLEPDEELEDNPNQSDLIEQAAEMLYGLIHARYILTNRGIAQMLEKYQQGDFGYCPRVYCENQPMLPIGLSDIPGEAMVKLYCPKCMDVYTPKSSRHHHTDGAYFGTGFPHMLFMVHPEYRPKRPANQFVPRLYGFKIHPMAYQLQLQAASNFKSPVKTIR

Chain of CK1γ2(h) (P78368 whole entry): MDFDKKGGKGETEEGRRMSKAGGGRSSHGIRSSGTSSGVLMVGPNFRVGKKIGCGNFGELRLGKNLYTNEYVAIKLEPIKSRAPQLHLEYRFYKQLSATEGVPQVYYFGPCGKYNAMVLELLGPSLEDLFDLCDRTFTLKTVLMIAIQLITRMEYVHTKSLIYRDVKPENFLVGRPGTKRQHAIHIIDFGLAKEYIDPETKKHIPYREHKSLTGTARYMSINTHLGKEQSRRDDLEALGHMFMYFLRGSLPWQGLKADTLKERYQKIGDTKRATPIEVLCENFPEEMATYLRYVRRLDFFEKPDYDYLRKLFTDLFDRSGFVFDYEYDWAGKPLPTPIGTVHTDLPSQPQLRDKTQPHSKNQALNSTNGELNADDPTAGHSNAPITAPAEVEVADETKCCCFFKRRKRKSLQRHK
Chain of Pim-1(h) (P11309 whole entry): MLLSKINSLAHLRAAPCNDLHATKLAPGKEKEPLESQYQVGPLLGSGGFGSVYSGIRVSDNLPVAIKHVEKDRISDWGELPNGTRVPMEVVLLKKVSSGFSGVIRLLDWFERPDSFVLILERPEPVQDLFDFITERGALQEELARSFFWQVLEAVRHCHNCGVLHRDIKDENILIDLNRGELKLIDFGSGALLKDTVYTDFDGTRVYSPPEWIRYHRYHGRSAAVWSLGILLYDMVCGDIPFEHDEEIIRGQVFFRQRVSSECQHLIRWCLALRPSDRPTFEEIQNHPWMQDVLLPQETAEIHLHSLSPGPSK
Chain of Pim-2(h) (Q9P1W9 whole entry): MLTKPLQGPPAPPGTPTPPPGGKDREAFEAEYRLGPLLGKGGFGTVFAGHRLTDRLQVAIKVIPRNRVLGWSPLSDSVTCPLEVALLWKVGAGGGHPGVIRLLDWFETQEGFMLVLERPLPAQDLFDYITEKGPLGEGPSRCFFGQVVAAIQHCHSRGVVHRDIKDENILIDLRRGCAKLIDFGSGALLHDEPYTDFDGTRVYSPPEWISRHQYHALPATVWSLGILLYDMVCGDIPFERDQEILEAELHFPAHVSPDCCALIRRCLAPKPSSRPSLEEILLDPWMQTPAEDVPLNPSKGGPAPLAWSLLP

SMILES: NCC1CCN(c2cc(/C=C3\SC(=O)NC3=O)ncn2)CC1 [Compound 11268]
- Percent Activity of Enzyme Pim-2(h) [1]: 108%
- Percent Activity of Enzyme Pim-3(h) [2]: 80%
- Percent Activity of Enzyme CK1(y) [3]: 114%
- pIC50 [4]: < 4.52
- pIC50 [5]: < 4.52
- pIC50 [6]: < 4.52
- Percent Activity of Enzyme Pim-1(h) [7]: 115%
- pIC50 [8]: < 4.52
- Percent Activity of Enzyme CK1γ2(h) [9]: 95%
- Percent Activity of Enzyme CK2(h) [10]: 85%
